# Data reported in patent publication US8946273B2, “S-Triazolyl alpha-mercapto acetanilides as inhibitors of HIV reverse transcriptase” (priority 2011, dated 2015).
# Tested on: wild type HIV-1
# Experiment: microbe, parasite or virus in culture
# Type: cell-based, human immunodeficiency virus type 1 (HIV-1)
# Conditions: Human immunodeficiency virus 1, Hela-JC53, read-out: EC50 WT
row,SMILES,EC50 [nM]
1,Cc1ccc(-n2c(SCC(=O)Nc3ccc(C(=O)O)cc3Cl)nnc2C(F)F)c2c1CCCC2 [compound 2],< 50
2,CCc1ccc(-n2c(SCC(=O)Nc3ccc(C(=O)O)cc3C)nnc2C(F)F)c2ccccc12 [compound 3],< 50
3,CCc1ccc(-n2c(SCC(=O)Nc3ccc(C(=O)O)cc3Cl)nnc2C(F)F)c2ccccc12 [compound 4],< 50
4,Cc1cc(C(=O)O)ccc1NC(=O)CSc1nnc(C(F)F)n1-c1ccc(C)c2c1CCCC2 [compound 5],< 50
5,CCc1ccc(-n2c(Br)nnc2SCC(=O)Nc2ccc(C(=O)O)cc2C)c2ccccc12 [compound 6],< 50
6,CCc1ccc(-n2c(Br)nnc2SCC(=O)Nc2ccc(C(=O)O)cc2Cl)c2ccccc12 [compound 8],< 50
7,O=C(CSc1nnc(Br)n1-c1ccc(C2CC2)c2ccccc12)Nc1ccc(C(=O)O)cc1Cl [compound 10],< 50
8,COc1ccc2cccc(-n3c(Br)nnc3SCC(=O)Nc3ccc(C(=O)O)cc3Cl)c2c1 [compound 13],< 50
9,O=C(CSc1nnc(C(F)F)n1-c1ccc(C2CC2)c2ccccc12)Nc1ccc(C(=O)O)cc1Cl [compound 14],< 50
10,Cc1cc(C2CC2)c2ccccc2c1-n1c(Br)nnc1SCC(=O)Nc1ccc(S(=O)(=O)O)cc1Cl [compound 15],< 50
11,CCc1ccc(-n2c(SCC(=O)Nc3ccc(C(=O)O)cc3Cl)nnc2C(F)(F)F)c2ccccc12 [compound 16],< 50
12,CCc1ccc(-n2c(CF)nnc2SCC(=O)Nc2ccc(C(=O)O)cc2Cl)c2ccccc12 [compound 17],< 50
13,CCc1ccc(-n2c(Br)nnc2SCC(=O)Nc2ccc(S(=O)(=O)O)cc2Br)c2ccccc12 [compound 20],> 100
14,O=C(CSc1nnc(Br)n1-c1ccc(C2CC2)cc1Cl)Nc1ccc(S(=O)(=O)O)cc1Cl [compound 21],50 to 100
15,CCc1ccc(-n2c(Br)nnc2SCC(=O)Nc2ccc(C(=O)O)cc2Br)c2ccccc12 [compound 22],< 50
16,Cc1cc(C2CC2)c2ccccc2c1-n1c(Br)nnc1SCC(=O)Nc1ccc(C(=O)O)cc1Cl [compound 23],< 50
17,O=C(CSc1nnc(Br)n1-c1ccc(C2CC2)cc1OC(F)(F)F)Nc1ccc(S(=O)(=O)O)cc1Cl [compound 24],> 100
18,COc1ccc2c(C3CC3)ccc(-n3c(Br)nnc3SCC(=O)Nc3ccc(C(=O)O)cc3Cl)c2c1 [compound 34],< 50
19,Cc1cc(C(=O)O)ccc1NC(=O)CSc1nnc(Br)n1-c1ccc(C2CC2)c2ccccc12 [compound 35],< 50
20,Cc1cc(C)c2ccccc2c1-n1c(CF)nnc1SCC(=O)Nc1ccc(S(N)(=O)=O)cc1Cl [compound 53],< 50
21,NS(=O)(=O)c1ccc(NC(=O)CSc2nnc(Br)n2-c2ccc(C3CC3)c3ccccc23)c(Cl)c1 [compound 77],< 50
22,CCc1ccc(-n2c(Br)nnc2SCC(=O)Nc2ccc(S(N)(=O)=O)cc2Cl)c2c1CCCC2 [compound 79],< 50
23,Cc1cc(S(N)(=O)=O)ccc1NC(=O)CSc1nnc(Br)n1-c1ccc(C)c2c1CCCC2 [compound 80],< 50

# Biological target: T1, wild-type HIV reverse transcriptase (Human immunodeficiency virus type 1 group M subtype B, UniProt P04585)
# T1 construct: wild-type and four mutant HIV reverse transcriptases
# Experiment: Activity on wild type reverse transcriptase (Table 1 IC50 WT)
# Type: biochemical
# Conditions: not given
# Description: Using similar methods as described above, 2-[5-bromo-4-(4-cyclopropylnaphthalen-1-yl)-4H-[1,2,4]triazol-3-ylsulfanyl]-N-(2-methyl-4-sulfamoylphenyeacetamide and 2-[5-bromo-4-(4-ethylnaphthalen-1-yl)-4H-[1,2,4]triazol-3-ylsulfanyl]-N-(2-chloro-4-sulfamoylphenyl)-acetamide were synthesized, as were the N-4-carbamyl analog, 2-[5-bromo-4-(4-ethyl-naphthalen-1-yl)-4H-[1,2,4]triazol-3-ylsulfanyl]-N-(2-chloro-4-carbamoylphenyl)-acetamide and the N-4-carboxyl analog. Each of the compounds was tested against a panel of mutant HIV reverse transcriptases, including 20 of the 22 of the mutants that are found in about 2% or more of the patient samples that are resistant to the most widely used non-nucleoside HIV-RT inhibitor efavirenz ((4S)-6-chloro-4-(cyclopropylethynyl)-1,4-dihydro-4-(trifluoromethyl)-2H-3,1-benzoxazin-2-one). […] In most cases both criteria were met. […] […].
# Compounds of the invention were tested against the wild-type and four mutant HIV reverse transcriptases. The results are listed in Table 1 as EC50 (nM) and IC50 (nM). In the Table, A represents <50 nM, B is between 50 and 100 nM, and C is >100 nM. ND is not determined.
row,SMILES,IC50 [nM]
1,Cc1ccc(-n2c(SCC(=O)Nc3ccc(C(=O)O)cc3Cl)nnc2C(F)F)c2c1CCCC2 [compound 2],< 50
2,CCc1ccc(-n2c(SCC(=O)Nc3ccc(C(=O)O)cc3C)nnc2C(F)F)c2ccccc12 [compound 3],< 50
3,CCc1ccc(-n2c(SCC(=O)Nc3ccc(C(=O)O)cc3Cl)nnc2C(F)F)c2ccccc12 [compound 4],< 50
4,Cc1cc(C(=O)O)ccc1NC(=O)CSc1nnc(C(F)F)n1-c1ccc(C)c2c1CCCC2 [compound 5],< 50
5,CCc1ccc(-n2c(Br)nnc2SCC(=O)Nc2ccc(C(=O)O)cc2C)c2ccccc12 [compound 6],< 50
6,CCc1ccc(-n2c(Br)nnc2SCC(=O)Nc2ccc(C(=O)O)cc2Cl)c2ccccc12 [compound 8],< 50
7,O=C(CSc1nnc(Br)n1-c1ccc(C2CC2)c2ccccc12)Nc1ccc(C(=O)O)cc1Cl [compound 10],< 50
8,COc1ccc2cccc(-n3c(Br)nnc3SCC(=O)Nc3ccc(C(=O)O)cc3Cl)c2c1 [compound 13],< 50
9,O=C(CSc1nnc(C(F)F)n1-c1ccc(C2CC2)c2ccccc12)Nc1ccc(C(=O)O)cc1Cl [compound 14],< 50
10,Cc1cc(C2CC2)c2ccccc2c1-n1c(Br)nnc1SCC(=O)Nc1ccc(S(=O)(=O)O)cc1Cl [compound 15],< 50
11,CCc1ccc(-n2c(SCC(=O)Nc3ccc(C(=O)O)cc3Cl)nnc2C(F)(F)F)c2ccccc12 [compound 16],< 50
12,CCc1ccc(-n2c(CF)nnc2SCC(=O)Nc2ccc(C(=O)O)cc2Cl)c2ccccc12 [compound 17],< 50
13,CCc1ccc(-n2c(Br)nnc2SCC(=O)Nc2ccc(S(=O)(=O)O)cc2Br)c2ccccc12 [compound 20],< 50
14,O=C(CSc1nnc(Br)n1-c1ccc(C2CC2)cc1Cl)Nc1ccc(S(=O)(=O)O)cc1Cl [compound 21],< 50
15,CCc1ccc(-n2c(Br)nnc2SCC(=O)Nc2ccc(C(=O)O)cc2Br)c2ccccc12 [compound 22],< 50
16,Cc1cc(C2CC2)c2ccccc2c1-n1c(Br)nnc1SCC(=O)Nc1ccc(C(=O)O)cc1Cl [compound 23],< 50
17,O=C(CSc1nnc(Br)n1-c1ccc(C2CC2)cc1OC(F)(F)F)Nc1ccc(S(=O)(=O)O)cc1Cl [compound 24],< 50
18,Cc1cc(C(=O)O)ccc1NC(=O)CSc1nnc(Br)n1-c1ccc(C2CC2)c2ccccc12 [compound 35],< 50

# Biological target: mutant HIV reverse transcriptases (Human immunodeficiency virus type 1, UniProt P12497, Y768C, cells depend on it)
# Experiment: not given
# Type: cell-based
# Conditions: not given
row,SMILES,EC50 [nM]
1,Cc1ccc(-n2c(SCC(=O)Nc3ccc(C(=O)O)cc3Cl)nnc2C(F)F)c2c1CCCC2 [compound 2],< 50
2,CCc1ccc(-n2c(SCC(=O)Nc3ccc(C(=O)O)cc3C)nnc2C(F)F)c2ccccc12 [compound 3],50 to 100
3,CCc1ccc(-n2c(SCC(=O)Nc3ccc(C(=O)O)cc3Cl)nnc2C(F)F)c2ccccc12 [compound 4],< 50
4,Cc1cc(C(=O)O)ccc1NC(=O)CSc1nnc(C(F)F)n1-c1ccc(C)c2c1CCCC2 [compound 5],> 100
5,CCc1ccc(-n2c(Br)nnc2SCC(=O)Nc2ccc(C(=O)O)cc2C)c2ccccc12 [compound 6],< 50
6,CCc1ccc(-n2c(Br)nnc2SCC(=O)Nc2ccc(C(=O)O)cc2Cl)c2ccccc12 [compound 8],< 50
7,O=C(CSc1nnc(Br)n1-c1ccc(C2CC2)c2ccccc12)Nc1ccc(C(=O)O)cc1Cl [compound 10],< 50
8,COc1ccc2cccc(-n3c(Br)nnc3SCC(=O)Nc3ccc(C(=O)O)cc3Cl)c2c1 [compound 13],< 50
9,O=C(CSc1nnc(C(F)F)n1-c1ccc(C2CC2)c2ccccc12)Nc1ccc(C(=O)O)cc1Cl [compound 14],< 50
10,Cc1cc(C2CC2)c2ccccc2c1-n1c(Br)nnc1SCC(=O)Nc1ccc(S(=O)(=O)O)cc1Cl [compound 15],50 to 100
11,CCc1ccc(-n2c(SCC(=O)Nc3ccc(C(=O)O)cc3Cl)nnc2C(F)(F)F)c2ccccc12 [compound 16],50 to 100
12,CCc1ccc(-n2c(CF)nnc2SCC(=O)Nc2ccc(C(=O)O)cc2Cl)c2ccccc12 [compound 17],< 50
13,CCc1ccc(-n2c(Br)nnc2SCC(=O)Nc2ccc(S(=O)(=O)O)cc2Br)c2ccccc12 [compound 20],> 100
14,O=C(CSc1nnc(Br)n1-c1ccc(C2CC2)cc1Cl)Nc1ccc(S(=O)(=O)O)cc1Cl [compound 21],> 100
15,CCc1ccc(-n2c(Br)nnc2SCC(=O)Nc2ccc(C(=O)O)cc2Br)c2ccccc12 [compound 22],< 50
16,Cc1cc(C2CC2)c2ccccc2c1-n1c(Br)nnc1SCC(=O)Nc1ccc(C(=O)O)cc1Cl [compound 23],< 50
17,O=C(CSc1nnc(Br)n1-c1ccc(C2CC2)cc1OC(F)(F)F)Nc1ccc(S(=O)(=O)O)cc1Cl [compound 24],> 100
18,COc1ccc2c(C3CC3)ccc(-n3c(Br)nnc3SCC(=O)Nc3ccc(C(=O)O)cc3Cl)c2c1 [compound 34],< 50
19,Cc1cc(C)c2ccccc2c1-n1c(CF)nnc1SCC(=O)Nc1ccc(S(N)(=O)=O)cc1Cl [compound 53],< 50
20,NS(=O)(=O)c1ccc(NC(=O)CSc2nnc(Br)n2-c2ccc(C3CC3)c3ccccc23)c(Cl)c1 [compound 77],50 to 100
21,CCc1ccc(-n2c(Br)nnc2SCC(=O)Nc2ccc(S(N)(=O)=O)cc2Cl)c2c1CCCC2 [compound 79],< 50
22,Cc1cc(S(N)(=O)=O)ccc1NC(=O)CSc1nnc(Br)n1-c1ccc(C)c2c1CCCC2 [compound 80],< 50

# Biological target: mutant HIV reverse transcriptases (Human immunodeficiency virus type 1, UniProt P12497, Y775L, cells depend on it)
# Experiment: not given
# Type: cell-based
# Conditions: not given
row,SMILES,EC50 [nM]
1,Cc1ccc(-n2c(SCC(=O)Nc3ccc(C(=O)O)cc3Cl)nnc2C(F)F)c2c1CCCC2 [compound 2],< 50
2,CCc1ccc(-n2c(SCC(=O)Nc3ccc(C(=O)O)cc3C)nnc2C(F)F)c2ccccc12 [compound 3],> 100
3,CCc1ccc(-n2c(SCC(=O)Nc3ccc(C(=O)O)cc3Cl)nnc2C(F)F)c2ccccc12 [compound 4],< 50
4,Cc1cc(C(=O)O)ccc1NC(=O)CSc1nnc(C(F)F)n1-c1ccc(C)c2c1CCCC2 [compound 5],> 100
5,CCc1ccc(-n2c(Br)nnc2SCC(=O)Nc2ccc(C(=O)O)cc2C)c2ccccc12 [compound 6],> 100
6,CCc1ccc(-n2c(Br)nnc2SCC(=O)Nc2ccc(C(=O)O)cc2Cl)c2ccccc12 [compound 8],< 50
7,O=C(CSc1nnc(Br)n1-c1ccc(C2CC2)c2ccccc12)Nc1ccc(C(=O)O)cc1Cl [compound 10],< 50
8,COc1ccc2cccc(-n3c(Br)nnc3SCC(=O)Nc3ccc(C(=O)O)cc3Cl)c2c1 [compound 13],< 50
9,O=C(CSc1nnc(C(F)F)n1-c1ccc(C2CC2)c2ccccc12)Nc1ccc(C(=O)O)cc1Cl [compound 14],< 50
10,Cc1cc(C2CC2)c2ccccc2c1-n1c(Br)nnc1SCC(=O)Nc1ccc(S(=O)(=O)O)cc1Cl [compound 15],> 100
11,CCc1ccc(-n2c(SCC(=O)Nc3ccc(C(=O)O)cc3Cl)nnc2C(F)(F)F)c2ccccc12 [compound 16],> 100
12,CCc1ccc(-n2c(CF)nnc2SCC(=O)Nc2ccc(C(=O)O)cc2Cl)c2ccccc12 [compound 17],> 100
13,CCc1ccc(-n2c(Br)nnc2SCC(=O)Nc2ccc(S(=O)(=O)O)cc2Br)c2ccccc12 [compound 20],> 100
14,O=C(CSc1nnc(Br)n1-c1ccc(C2CC2)cc1Cl)Nc1ccc(S(=O)(=O)O)cc1Cl [compound 21],> 100
15,CCc1ccc(-n2c(Br)nnc2SCC(=O)Nc2ccc(C(=O)O)cc2Br)c2ccccc12 [compound 22],50 to 100
16,Cc1cc(C2CC2)c2ccccc2c1-n1c(Br)nnc1SCC(=O)Nc1ccc(C(=O)O)cc1Cl [compound 23],< 50
17,O=C(CSc1nnc(Br)n1-c1ccc(C2CC2)cc1OC(F)(F)F)Nc1ccc(S(=O)(=O)O)cc1Cl [compound 24],> 100
18,COc1ccc2c(C3CC3)ccc(-n3c(Br)nnc3SCC(=O)Nc3ccc(C(=O)O)cc3Cl)c2c1 [compound 34],< 50
19,Cc1cc(C)c2ccccc2c1-n1c(CF)nnc1SCC(=O)Nc1ccc(S(N)(=O)=O)cc1Cl [compound 53],< 50
20,NS(=O)(=O)c1ccc(NC(=O)CSc2nnc(Br)n2-c2ccc(C3CC3)c3ccccc23)c(Cl)c1 [compound 77],> 100
21,CCc1ccc(-n2c(Br)nnc2SCC(=O)Nc2ccc(S(N)(=O)=O)cc2Cl)c2c1CCCC2 [compound 79],< 50
22,Cc1cc(S(N)(=O)=O)ccc1NC(=O)CSc1nnc(Br)n1-c1ccc(C)c2c1CCCC2 [compound 80],< 50
